How the values were obtained:
Type in all cases: in vivo
[1] = test system: Plutella xylostella (Diamond Back Moth); assay: Example B3: Plutella xylostella, artificial diet in 24-well plates, eggs; settings: 192 h, application rate 200 ppm, 8 days after infestation, versus untreated, read-out: effect in at least one of the two categories (mortality or growth inhibition)
Method: Example B3: Plutella xylostella (Diamond Back Moth)
24-well microtiter plates with artificial diet were treated with aqueous test solutions prepared from 10'000 ppm DMSO stock solutions by pipetting. After drying, Plutella eggs were pipetted through a plastic stencil onto a gel blotting paper and the plate was closed with it. The samples were assessed for mortality and growth inhibition in comparison to untreated samples 8 days after infestation.

[2] = test system: Chilo suppressalis (Striped Rice Stemborer); assay: Example B1: Chilo suppressalis, artificial diet in 24-well plates, L2 larvae; settings: 144 h, application rate 200 ppm, 6 days after infestation, versus untreated, read-out: control (at least one of mortality, anti-feedant effect, growth inhibition)
Method: Example B1: Chilo suppressalis (Striped Rice Stemborer)
24-well microtiter plates with artificial diet were treated with aqueous test solutions prepared from 10'000 ppm DMSO stock solutions by pipetting. After drying, the plates were infested with L2 larvae (6-8 per well). The samples were assessed for mortality, anti-feeding effect, and growth inhibition in comparison to untreated samples 6 days after infestation. Control of Chilo suppressalis by a test sample is given when at least one of the categories mortality, anti-feedant effect, and growth inhibition is higher than the untreated sample.

[3] = test system: Spodoptera littoralis (Eqyptian Cotton Leaf Worm); assay: Example B4: Spodoptera littoralis, sprayed cotton leaf discs, L1 larvae; settings: foliar, 72 h, application rate 200 ppm, 3 days after infestation, versus untreated, read-out: control (at least one of mortality, anti-feedant effect, growth inhibition)
Method: Example B4: Spodoptera littoralis (Eqyptian Cotton Leaf Worm)
Cotton leaf discs were placed onto agar in 24-well microtiter plates and sprayed with aqueous test solutions prepared from 10'000 ppm DMSO stock solutions. After drying the leaf discs were infested with five L1 larvae. The samples were assessed for mortality, anti-feeding effect, and growth inhibition in comparison to untreated samples 3 days after infestation. Control of Spodoptera littoralis by a test sample is given when at least one of the categories mortality, anti-feedant effect, and growth inhibition is higher than the untreated sample.

[4] = test system: Diabrotica Balteata (Corn Root Worm); assay: Example B2: Diabrotica balteata, sprayed maize sprouts on agar, L2 larvae; settings: 96 h, application rate 200 ppm, 4 days after infestation, versus untreated, read-out: effect in at least one of the two categories (mortality or growth inhibition)
Method: Example B2: Diabrotica Balteata (Corn Root Worm)
Maize sprouts placed onto an agar layer in 24-well microtiter plates were treated with aqueous test solutions prepared from 10'000 ppm DMSO stock solutions by spraying. After drying, the plates were infested with L2 larvae (6 to 10 per well). The samples were assessed for mortality and growth inhibition in comparison to untreated samples 4 days after infestation.

[5] = test system: Frankliniella occidentalis (Western Flower Thrips); assay: Example B5: Frankliniella occidentalis, feeding/contact activity, sunflower leaf discs; settings: foliar, 168 h, application rate 200 ppm, population of mixed ages, 7 days after infestation
Method: Example B5: Frankliniella occidentalis (Western Flower Thrips). Feedinq/Contact Activity
Sunflower leaf discs were placed on agar in 24-well microtiter plates and sprayed with aqueous test solutions prepared from 10'000 DMSO stock solutions. After drying the leaf discs were infested with a Frankliniella population of mixed ages. The samples were assessed for mortality 7 days after infestation.

[6] = test system: Myzus persicae (Green Peach Aphid); assay: Example B7: Myzus persicae, intrinsic activity, sucrose solution under Parafilm; settings: 120 h, test rate 12 ppm, 5 days after infestation
Excerpt: Example B7: Myzus persicae (Green Peach Aphid). Intrinsic Activity
Test compounds prepared from 10'000 ppm DMSO stock solutions were applied by pipette into 24-well microtiter plates and mixed with sucrose solution. The plates were closed with a stretched Parafilm. A plastic stencil with 24 holes was placed onto the plate and infested pea seedlings were placed directly on the Parafilm. The infested plate was closed with a gel blotting paper and another plastic stencil and then turned upside down. The samples were assessed for mortality 5 days after infestation.

[7] = test system: Myzus persicae (Green Peach Aphid); assay: Example B6: Myzus persicae, feeding/contact activity, sunflower leaf discs; settings: foliar, 144 h, application rate 200 ppm, population of mixed ages, 6 days after infestation
Method: Example B6: Myzus persicae (Green Peach Aphid). Feedinq/Contact Activity
Sunflower leaf discs were placed onto agar in a 24-well microtiter plate and sprayed with aqueous test solutions prepared from 10'000 ppm DMSO stock solutions. After drying, the leaf discs were infested with an aphid population of mixed ages. The samples were assessed for mortality 6 days after infestation.

C[C@H](NC1=NS(C)(=O)=Nc2c(Br)cc(Br)cc21)c1ncnn1-c1ncccn1 (stereo partly drawn) [P1, 8,10-dibromo-3-methyl-3-oxo-N-[(1S)-1-(2-pyrimidin-2-yl-1,2,4-triazol-3-yl)ethyl]-3λ^6-thia-2,4-diazabicyclo[4.4.0]deca-1(6),2,4,7,9-pentaen-5-amine]
≥ 80%: percent effect (mortality or growth inhibition) at 200 ppm [1] | percent control (mortality, anti-feedant effect or growth inhibition) at 200 ppm [2] | percent control (mortality, anti-feedant effect or growth inhibition) at 200 ppm [3] | percent effect (mortality or growth inhibition) at 200 ppm [4] | mortality at 200 ppm [5] | mortality at 12 ppm [6]

C[C@H](NC1=NS(C)(=O)=Nc2c(Br)cc(Br)cc21)c1nccnc1-c1cnccn1 (stereo partly drawn) [P10, 8,10-dibromo-3-methyl-3-oxo-N-[(1S)-1-(3-pyrazin-2-ylpyrazin-2-yl)ethyl]-3λ^6-thia-2,4-diazabicyclo[4.4.0]deca-1(6),2,4,7,9-pentaen-5-amine]
≥ 80%: percent effect (mortality or growth inhibition) at 200 ppm [1] | percent control (mortality, anti-feedant effect or growth inhibition) at 200 ppm [2] | percent control (mortality, anti-feedant effect or growth inhibition) at 200 ppm [3] | percent effect (mortality or growth inhibition) at 200 ppm [4] | mortality at 200 ppm [5] | mortality at 12 ppm [6] | mortality at 200 ppm [7]
